Measurements reported in paper PMC11881437 (Molecular Medicine, 2025).

Assays:
HIF1α, VEGFA, NF-ĸB = test: Western blot of HIF1α, VEGFA and NF-ĸB in CES; assay type: cell-based, human; settings: 24 h
Procedure: Cells were incubated with Brefeldin A (10 µg/ml) for 4 h before harvesting to determine VEGFA expression. Briefly, cells were lysed with RIPA buffer [50 mmol/L Tris–HCl (pH 7.8), 150 mmol/L NaCl, 1% Triton X-100, 0.1% SDS, 0.5% sodium deoxycholate, and 1 mmol/L EDTA] containing complete protease inhibitor cocktail. Equal amount of protein was electrophoresed on SDS-PAGE and electro transferred onto polyvinylidene difluoride (PVDF) membranes using Bio-Rad mini gel apparatus. The membranes were probed with OCT4 (Thermo Fisher Scientific, USA), SOX2 (AbCam, USA), NANOG (Thermo Fisher Scientific, USA), HIF1α (Thermo Fisher Scientific, USA) and VEGFA (Thermo Fisher Scientific, USA) and NF-ĸB (Santa Cruz Biotechnology, USA) antibodies. β-Actin (Santa Cruz Biotechnology, USA) and α-TUBULIN (Santa Cruz Biotechnology, USA) antibodies were used as loading control. Then, the blots were probed with HRP tagged secondary antibodies. Signals were detected with the ECL system (Promega, USA) and images were captured in iBright™ CL1500 Imaging System.

HIF1α, VEGFA = test: Western blot and immunocytochemistry in HIF1α transfected HCT116 cells; assay type: cell-based, human
Procedure: (§1) HCT116 cells were transiently transfected with HA-HIF1α-pcDNA3 plasmid (Addgene, USA, Plasmid #18949) by using lipofectamineTM 2000 (Thermo Fisher Scientific, USA) according to the manufacturer’s instructions. After 24 h of transfection, those cells were subjected to various experiments.

[1] = design: method as in Tan et al. [2013]; Chagas et al. [2020]; Zhang et al. [2007]; settings: ref Tan et al. [2013]; Chagas et al. [2020]; Zhang et al. [2007]; cited from earlier work
[2] = Toxicity of Orientin alone in mice, 28 days; assay type: in vivo, BALB/c mice
Procedure: To determine the toxicity of only Orientin treatment in various doses, the mice were divided into five groups. Each group contained six animals (n = 6). Each animal of the vehicle control group (VC) was left untreated, while, mice of other four groups were administered Orientin intravenously with 1 mg/kg b.w, 3 mg/kg b.w, 5 mg/kg b.w and 10 mg/kg b.w dosage respectively for 28 days. […] All the treatments were continued for 10 days. On day 11 all the mice were sacrificed and different parameters were studied.
Glutathione-S-transferase (GST), superoxide dismutase (SOD), Catalase (CAT), Glutathione peroxidase (GPx) and reduced glutathione (GSH) activity in hepatic tissue were assessed as described previously (Hajra et al. [2018b]). Values of all the parameters were calculated with respect to the amount of total protein present in liver homogenates.
Various organs and solid tumors collected after sacrificing the mice were embedded into paraffin after 10% neutral buffered formalin fixation. 4 μm sections were prepared and used for histopathological study. Standard Hematoxylin and Eosin (H&E) staining protocol was used and sections were visualized under light microscope (DM 1000, Leica, Germany) (Hajra et al. [2018a]).

[3] = test system: CD44+/CD133+ cell population in HIF1α transfected HCT116 derived tumorospheres; test: Flow cytometry of CD44+/CD133+ cells in CES from HIF1α transfected HCT116 cells; assay type: cell-based, human; settings: transfected control 28.9%
Procedure: as §1
Percentages of CD44^+/CD133^+ cell population were determined within tumorospheres and HIF1α positive cells were determined within the CD44^+/CD133^+ cell population using a flow cytometer (BD LSRFortessa™ X-20) and analyzed by BD FACSDiva™ software.

O=c1cc(-c2ccc(O)c(O)c2)oc2c([C@@H]3O[C@H](CO)[C@@H](O)[C@H](O)[C@H]3O)c(O)cc(O)c12 [Orientin]
NF-ĸB expression (HIF1α, VEGFA, NF-ĸB): downregulated | HIF1α and VEGFA expression by immunocytochemistry (HIF1α, VEGFA): reduced | excretion [1]: excreted primarily through urine | metabolism [1]: hepatic metabolism via CYP450 enzymes | tissue distribution [1]: widely distributed in different tissues | hepatic GSH and activity of GST, GPx, SOD and CAT ([2]; 5 mg/kg b.w Orientin i.v., 28 days): increase | hepatic LPO level ([2]; 5 mg/kg b.w Orientin i.v., 28 days, vs control): significantly decreased | histopathology of liver, heart, lung and kidney ([2]; 5 mg/kg b.w Orientin, vs control): no histopathological changes | CD44+/CD133+ cell population [3]: 16.4%
